This data set deals with MM1.S lenalidomide-resistant cells. In words: Cell viability (EZ-Cytox) of lenalidomide-resistant multiple myeloma cells. The data set is classed as cell-based. The note with it: 42 hours culture + 3 hours EZ-Cytox, absorbance 450 nm. The method, then:
The MM1.S cell line (American Type Culture Collection, ATCC from USA) was incubated in RPMI1640 medium containing 10% FBS and 1% penicillin/streptomycin at 37° C. under 5% CO2. The Lenalidomide-resistant MM1.S cell line was established by gradually adding […] lenalidomide (Sigma-Aldrich, Cat No. D2438) from 5 μM to 200 μM to the cell line culture.
In order to evaluate cytotoxic effects of the 30Kcα-CRBN recombinant fusion protein, 1×104 MM1.S lenalidomide-resistant cells were seeded in each well of a 96 well plate. 200 μM of lenalidomide and/or 3 μM of 30Kcα-CRBN recombinant fusion protein were added to each well according to the experimental group. The total medium volume of each well was adjusted to 100 μL. Then, each medium was cultured for 42 hours, and 10 μl of EZ-Cytox (Cat. No. EZ-3000 from Dogen) was added to each well, followed by incubation for 3 hours. Thereafter, absorbance was measured at 450 nm using a microplate reader (Clarostar™ from BMGlabtech), and a cell viability (%) was calculated by using the measured absorbance and shown in FIG. 2.

As for `Nc1cccc2c1CN(C1CCC(=O)NC1=O)C2=O` (centres unmarked) [lenalidomide], where the note is “lenalidomide 200 μM alone, without 30Kcα-CRBN fusion protein, FIG. 2A”, the cell viability entry was “could not be reduced”.

B1: 30Kcα-CRBN recombinant fusion protein: Fusion recombinant protein of 30Kc19 α-helix domain (30Kc19α, SEQ ID NO: 1) linked N-terminally to human cereblon (SEQ ID NO: 2) (protein)
chain: ADSDVPNDILEEQLYNSVVVADYDSAVEKSKHLYEEKKSEVITNVVNKLIRNNKMNCMEYAYQLWLQGSKDIVRDCFPVEFRLIFAENMAGEGDQQDAAHNMGNHLPLLPAESEEEDEMEVEDQDSKEAKKPNIINFDTSLPTSHTYLGADMEEFHGRTLHDDDSCQVIPVLPQVMMILIPGQTLPLQLFHPQEVSMVRNLIQKDRTFAVLAYSNVQEREAQFGTTAEIYAYREEQDFGIEIVKVKAIGRQRFKVLELRTQSDGIQQAKVQILPECVLPSTMSAVQLESLNKCQIFPSKPVSREDQCSYKWWQKYQKRKFHCANLTSWPRWLYSLYDAETLMDRIKKQLREWDENLKDDSLPSNPIDFSYRVAACLPIDDVLRIQLLKIGSAIQRLRCELDIMNKCTSLCCKQCQETEITTKNEIFSLSLCGPMAAYVNPHGYVHETLTVYKACNLNLIGRPSTEHSWFPGYAWTVAQCKICASHIGWKFTATKKDMSPQKFWGLTRSALLPTIPDTEDEISPDKVILCL
modifications: 30Kc alpha-CRBN
As to B1, the “reduction of cell viability compared with the control” value (3 μM 30Kcα-CRBN fusion protein in combination with 200 μM lenalidomide, FIG. 2B) is approximately 50%.
